Measurements as given in US9441262B2, “MASP-2, a complement fixing enzyme, and uses for it” (Helion Biotech ApS, priority 1997, dated 2016).

Target: T1, MASP-2 (Homo sapiens, UniProt O00187)
T1 construct: applying test samples, e.g., diluted plasma or serum samples; from tissue; host or cells: plasma or serum
Test: TRIFMA for MASP-2 activity of the MBL/MASP complex (C4 activation on mannan-coated wells)
Format: biochemical
Description: MASP-2 may be estimated by its capacity to activate the complement system. When C4 is cleaved by MASP-2 an active thiol ester is exposed and C4 becomes covalently attached to nearby nucleophilic groups. A substantial part of the C4b will thus become attached to the coated plastic well and may be detected by anti-C4 antibody. A quantitative TRIFMA for MASP-2 activity was constructed by 1) coating microtitre wells with 1 μg mannan in 100 μl buffer; 2) blocking with Tween-20; 3) applying test samples, e.g., diluted plasma or serum samples; 4) applying purified complement factor C4 at 5 μg/ml; 5) incubate for one hour at 37° C.; 6) applying Eu-labelled anti-C4 antibody; 7) applying enhancement solution; and 8) reading the Eu by time resolved fluorometry. (Estimation by ELISA may be carried out similarly, e.g. by applying biotin-labelled anti-C4 in step 6; 7) apply alkaline phosphatase-labelled avidin; 8) apply substrate; and 9) read the colour intensity). Between each step the plate was incubated at room temperature and washed, except between step 7 and 8. A calibration curve can be constructed using dilutions of one selected normal plasma, arbitrarily said to contain 1 unit of MBL/MASP-2 activity per ml. The assay is carried out at conditions which preclude activation of C4 by the classical or alternative complement activation pathways.

T1 sequence (O00187 445-686 limits assumed): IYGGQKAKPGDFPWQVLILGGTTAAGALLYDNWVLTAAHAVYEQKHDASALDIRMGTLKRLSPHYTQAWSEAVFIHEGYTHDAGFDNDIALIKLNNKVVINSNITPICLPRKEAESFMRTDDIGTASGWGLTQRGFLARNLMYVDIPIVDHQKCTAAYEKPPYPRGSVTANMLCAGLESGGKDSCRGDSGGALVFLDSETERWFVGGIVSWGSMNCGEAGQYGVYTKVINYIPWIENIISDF
T1 sequence (O00187 16-444 partner limits assumed): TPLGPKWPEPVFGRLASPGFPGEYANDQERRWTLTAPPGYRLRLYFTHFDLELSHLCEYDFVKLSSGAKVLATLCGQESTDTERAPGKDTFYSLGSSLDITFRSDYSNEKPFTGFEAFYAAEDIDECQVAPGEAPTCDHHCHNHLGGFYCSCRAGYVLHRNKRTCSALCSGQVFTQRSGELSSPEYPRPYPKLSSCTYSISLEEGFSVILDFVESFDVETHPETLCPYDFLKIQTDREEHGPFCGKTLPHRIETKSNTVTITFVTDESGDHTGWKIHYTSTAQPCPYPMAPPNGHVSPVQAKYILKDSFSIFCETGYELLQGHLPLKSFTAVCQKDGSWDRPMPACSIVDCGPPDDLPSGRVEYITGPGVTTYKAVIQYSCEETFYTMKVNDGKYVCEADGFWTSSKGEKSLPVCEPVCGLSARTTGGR
T1 sequence (P11226 21-248 partner): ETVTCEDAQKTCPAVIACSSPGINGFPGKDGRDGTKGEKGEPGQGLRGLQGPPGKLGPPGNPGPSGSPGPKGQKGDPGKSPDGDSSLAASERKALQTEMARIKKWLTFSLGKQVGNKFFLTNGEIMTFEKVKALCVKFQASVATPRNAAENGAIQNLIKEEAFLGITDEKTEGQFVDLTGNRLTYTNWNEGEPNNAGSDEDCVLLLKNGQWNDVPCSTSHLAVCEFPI

Structure (SMILES): O=S(=O)(F)Cc1ccccc1 [PMSF]
- effectiveness as enzyme inhibitor in the TRIFMA for MASP-2 activity: proved effective

Structure (SMILES): Cl.NCCc1ccc(S(=O)(=O)F)cc1 [Pefabloc]
- effectiveness as enzyme inhibitor in the TRIFMA for MASP-2 activity: inhibitors of MASP-2 activity

Structure (SMILES): N=C(N)c1ccccc1 [benzamidine]
- effectiveness as enzyme inhibitor in the TRIFMA for MASP-2 activity: proved effective
- activation of C4 (purified C4 at 5 μg/ml, one hour at 37° C.): completely inhibited
